Measured values reported in patent US9709557B2, “Anthraquinone based near IR emitting compounds and uses thereof” (LIFE TECHNOLOGIES CORPORATION, priority 2008, dated 2017).

Legend:
[1] = system: Live Jurkat cells; assay: Comparison of DNA stains on cell viability (Example 44); format: cell-based; settings: human, 72 h, 5 μM
Method: Live Jurkat cells are suspended at 5×10^5 cells/ml in complete RPMI media with 10% FBS. Four aliquots of 10 ml each of the cell suspension are made. A final concentration of 5 μM Hoechst 33342 (Invitrogen Corporation) is added to one aliquot, a final concentration of 5 μM DRAQ5 (Biostatus Limited, UK) is added to one aliquot, a final concentration of 5 μM Compound 9 is added to one aliquot, and one aliquot remains untreated as a control. All four aliquots are placed in a 37° C. waterbath for 30 minutes in protected from light. After the incubation, all cell suspensions are centrifuged, the cells are pelleted and the supernatant discarded. To each aliquot, 5 ml media is added. Four culture flasks are prepared by adding 35 ml media to each. One 5 ml aliquot of cells is added to one flask for each on the four cell suspensions aliquots. The flasks are placed in a 37° C. incubator with 5% CO2 in the dark for 72 hours. Each flask of cells is then gently mixed and cell suspension is removed for testing. The cell concentration and image is performed using the Cellometer instrument from Nexcelom. Percentage and absolute cell counts of live and dead cells for each treatment are determined using the LIVE/DEAD Viability/Cytotoxicity Kit (Invitrogen Corporation, Carlsbad, Calif.) with COUNTBRIGHT Absolute Counting Beads (Invitrogen Corporation). This involves adding one ml cell suspension to a 12×75 mm test tube and adding 2 μl of a 50 μM calcein AM solution to identify living cells and 4 μl of a 2 mM ethidium homodimer-1 solution to identify dead cells. The cell suspension is mixed and incubated for 20 minutes at room temperature protected from light. After the end of the incubation, 50 μl of well mixed COUNTBRIGHT absolute counting beads are added to each test tube. Each sample is run through the Becton Dickinson (BD) LSRII Flow Cytometer. Forward Scatter (FS) versus Side Scatter (SS) dual parameter plot is used to gate main cell population, and a separate gate is made around the bead population. Fluorescence is collected using 488 nm excitation laser with 530/30 bandpass and 610/20 bandpass emission filters. Markers on a dual parameter plot of calcein fluorescence versus ethidium homodimer-1 fluorescence is used to obtain percent of cells which are living and dead, as well as number of cell events recorded. By using the COUNTBRIGHT absolute counting beads assay, the absolute number of living and dead cells is calculated by using the equation: A/B×C/D=concentration of cells/μL (A=number of cell events, B=number of bead events, C=assigned bead count, D=volume of the sample in μl).

[2] = system: Live Jurkat cells; assay: DNA staining of live cells and DNA content cell cycle analysis using flow cytometry (Example 36); format: cell-based, human; settings: for G2/G1 ratio: 30 min
Method: Live Jurkat cells are suspended at 5×10^5 cells/ml in each RPMI media with 10% Fetal Bovine Serum (FBS) and Hanks Balanced Salt Solution (HBSS). A compound (e.g., Compound 9 or a salt thereof) is added to each of one mL cell suspensions at concentrations 1 μM, 5 μM, 10 μM, and 20 μM, and then incubated at 37° C. or room temperature for 30 minutes while protected from light. Cells are run through a Becton Dickinson (BD) LSRII Flow Cytometer. Forward Scatter (FS) versus Side Scatter (SS) dual parameter plot is used to gate main cell population. Fluorescence is collected using three lasers: 488 nm excitation laser with 670/14, 720/20 and 787/42 bandpass emission filter, 532 nm excitation laser with 585/42 and 780/60 bandpass emission filters, and 633 nm excitation laser with 695/40, and 787/42 bandpass emission filters. Collection of at least 10,000 events at flow rate of ˜200 events/second. The data is further analyzed using MODFIT LT Flow Cytometry Modeling Software from Verity Software House, Inc. to evaluate the ratio of G2/G1 and the % CV of G1 phase.
DNA content analysis in living cells is expected to produce variable results. Depending on the cell type, the % CV of the mean DNA content of a uniform cell population may vary from between 5%-10%. Although there is no formal consensus regarding the acceptable maximal CV value for the mean DNA content of the G0G1 phase, the % CV of normal diploid cells in a histogram generally is <8%. The CV of a tumor may be higher due to the presence of multiple tumor subpopulations. However, tumor CVs of <8% are recommended for useful S-Phase determinations (Cytometry, Vol. 14 (5), 1993, page 474).
Linearity is the observed ratio between the DNA Diploid G2M and G0G1 positions. The ratio normally is about two, but this ratio may deviate from the ideal value even under normal conditions (see, MODFIT LT User Guide, June 2000).

[3] = system: Jurkat cells fixed in 70% cold ethanol; assay: Staining of fixed cells, DNA content cell cycle by flow cytometry (Example 41); format: cell-based, human; settings: 5 μM, PBS, room temperature 30 min
Method: Live Jurkat cells are fixed 70% cold ethanol and stored at −20° C. for one month. The cells are the washed in phosphate buffered saline (PBS) and resuspended in PBS at 5×10^5 cells/ml. Cells are labeled with a 5 μM solution of a compound according to the invention (e.g., Compound 9 or a salt thereof) at room temperature for 30 minutes and then run through two flow cytometers: A BD LSRII using 488 nm excitation and 695/40 nm emission and an Accuri C6 using 488 nm excitation and >670 nm emission, collecting 10,000 events at low flow rate. Markers are placed on the G0G1 and G2M peaks to look at % CV of the G0G1 peak and the ratio of G2M/G0G1.

[4] = Accuri C6, 488 nm excitation, >670 nm
[5] = BD LSRII, 488 nm excitation, 695/40

CN(C)CCNC(=O)CNc1ccc(O)c2c1C(=O)c1c(O)ccc(N)c1C2=O [Compound 9]
% Dead Cells [1]: 26.4%
% Living Cells [1]: 71.2%
Cell Count (Cellometer) [1]: 2.54 × 10^5 cells/mL
Cell Count (Flow Cytommetry) [1]: 0.7 × 10^5 cells/mL
G2/G1 ratio ([2]; 1 μM, RPMI media, 37° C.): 1.91
G2/G1 ratio ([2]; 5 μM, RPMI media, 37° C.): 1.83
G2/G1 ratio ([2]; 10 μM, HBSS buffer, 37° C.): 1.84
G2/G1 ratio ([2]; 10 μM, HBSS buffer, room temperature): 1.83
G2/G1 ratio ([2]; 10 μM, RPMI media, 37° C.): 1.82
G2/G1 ratio ([2]; 10 μM, RPMI media, room temperature): 1.82
G2/G1 ratio ([2]; 20 μM, RPMI media, 37° C.): 1.87
% CV of G1-phase ([2]; all concentrations (1-20 μM), media and HBSS, 37° C. and room temperature, MODFIT): < 8%
G2/G1 ratios (linearity) ([2]; all concentrations, MODFIT analysis): indicating linearity of staining
DNA staining of live cells ([2]; excited by 488, 532 and 633 nm lasers): effective stain for DNA
% CV of the G0G1 peak [3, 4]: 5.9%
ratio of G2M/G0G1 [3, 4]: 1.85
% CV of the G0G1 peak [3, 5]: 6.0%
ratio of G2M/G0G1 [3, 5]: 1.83
